Test results: ChEMBL document CHEMBL1133374, “Chemical synthesis and cytotoxicity of some azinomycin analogues devoid of the 1-azabicyclo[3.1.0]hexane subunit” (Bioorg Med Chem Lett, 2000)

Tests used:
Format in all cases: functional, cell-based
[1] = test system: SK-OV-3; assay: The compound was evaluated for the cytotoxicity against human SKOV-3 (ovarian) tumor cell lines.
[2] = test system: HT-29; assay: The compound was evaluated for the cytotoxicity against human HT-29 (colon) tumor cell lines.
[3] = test system: CH1; assay: The compound was evaluated for the cytotoxicity against human CH1 (ovarian) tumor cell lines.
[4] = test system: A2780; assay: The compound was evaluated for the cytotoxicity against human A2780 (ovarian) tumor cell lines.
[5] = test system: A2780cisR; assay: The compound was evaluated for the cytotoxicity against human A2780cisR (ovarian) tumor cell lines.

Compound | IC50 [1] [µM] | IC50 ([2]; Homo sapiens, HT-29) [nM] | IC50 [3] [nM] | IC50 [4] [nM] | IC50 ([5]; Homo sapiens, A2780cisR) [nM] | IC50 ([2]; ht-29) [nM] | IC50 ([5]; a2780cisr) [nM]
CCOC(=O)CNC(=O)[C@@H](OC(=O)c1cc(OC)cc2c(C)cccc12)[C@]1(C)CO1 | 7.3 | 2250 | 260 | 340 | 830 | – | –
CCOc1cc(C(=O)O[C@H](C(N)=O)[C@]2(C)CO2)c2cccc(C)c2c1 | 12 | 4300 | 1400 | 1800 | 3500 | – | –
COc1cc(C(=O)O[C@H](C(N)=O)[C@@]2(C)CO2)c2cccc(C)c2c1 | 2.3 | 610 | 62 | 58 | 155 | – | –
C[C@@]1([C@H](OC(=O)c2cccc3ccccc23)C(N)=O)CO1 | 5.1 | 2150 | 550 | 440 | 1100 | – | –
C[C@@]1([C@H](OC(=O)c2ccc3ccccc3c2)C(N)=O)CO1 | 13 | 2600 | 170 | 390 | 1350 | – | –
C[C@@]1([C@H](OC(=O)c2ccccc2)C(N)=O)CO1 | > 25 | > 25000 | > 25000 | 20500 | > 25000 | – | –
C[C@@]1([C@H](OC(=O)c2cnc3ccccc3n2)C(N)=O)CO1 | > 25 | > 25000 | > 25000 | > 25000 | > 25000 | – | –
COc1cc(C(=O)O[C@H](C(N)=O)[C@]2(C)CO2)c2cccc(C)c2c1 | 1.25 | 330 | < 50 | < 50 | 76 | – | –
CC1([C@H](OC(=O)c2cccc3ccccc23)C(N)=O)CC1 | > 25 | > 25000 | > 25000 | > 25000 | > 25000 | – | –
CCOC(=O)[C@@H](NC(=O)[C@@H](OC(=O)c1ccc(C)c2cc(OC)ccc12)[C@]1(C)CO1)C(C)C | 2.95 | 2250 | 315 | 350 | 560 | – | –
CO[C@@]12[C@H](COC(N)=O)C3=C(C(=O)C(C)=C(N)C3=O)N1C[C@@H]1N[C@@H]12 [MITOMYCIN] | 0.2 | 40 | 40 | 50 | 60 | – | –
CISPLATIN | – | – | – | – | – | 1700 | 3000
